Results taken from patent US10294202B2, “Pyrrolidinones as herbicides” (FMC Corporation, priority 2013, dated 2019).

Experiments:
blackgrass = experiment: Test D pre-/postemergence herbicide test; assay type: in vivo, Alopecurus myosuroides; conditions: for Plant response rating: Blackgrass, scale 0 to 100; for Plant response rating, Blackgrass: scale 0 to 100 (0 no effect, 100 complete control)
Summary of the method: (§1)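 Compound applied in non-phytotoxic solvent with surfactant, either preemergence (silt loam soil) or postemergence (peat moss/vermiculite medium, 2–18 cm plants). Evaluated visually after 7 to 21 days; 0 = no effect, 100 = complete control.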

bromegrass, downy = experiment: Test D pre-/postemergence herbicide test; assay type: in vivo, Bromus tectorum; conditions: for Plant response rating: Bromegrass, Downy, scale 0 to 100; for Plant response rating, Bromegrass, Downy: scale 0 to 100 (0 no effect, 100 complete control)
Summary of the method: as §1

field violet = experiment: Test D pre-/postemergence herbicide test; assay type: in vivo, Viola arvensis; conditions: for Plant response rating: Field Violet, scale 0 to 100; for Plant response rating, Field Violet: scale 0 to 100 (0 no effect, 100 complete control)
Summary of the method: as §1

ryegrass, Italian = experiment: Test D pre-/postemergence herbicide test; assay type: in vivo, Lolium multiflorum; conditions: for Plant response rating: Postemergence, Ryegrass, Italian, scale 0 to 100; for Plant response rating, Ryegrass, Italian: Preemergence, scale 0 to 100 (0 no effect, 100 complete control)
Summary of the method: as §1

wheat, spring = experiment: Test D pre-/postemergence herbicide test; assay type: in vivo, Triticum aestivum; conditions: for Plant response rating: Postemergence, Wheat, Spring, scale 0 to 100; for Plant response rating, Wheat, Spring: Preemergence, scale 0 to 100 (0 no effect, 100 complete control)
Summary of the method: as §1

wheat, winter = experiment: Test D pre-/postemergence herbicide test; assay type: in vivo, Triticum aestivum; conditions: for Plant response rating: Postemergence, Wheat, Winter, scale 0 to 100; for Plant response rating, Wheat, Winter: Preemergence, scale 0 to 100 (0 no effect, 100 complete control)
Summary of the method: as §1

radish, wild = experiment: Test D pre-/postemergence herbicide test; assay type: in vivo, Raphanus raphanistrum; conditions: for Plant response rating: Postemergence, Radish, Wild, scale 0 to 100; for Plant response rating, Radish, Wild: Preemergence, scale 0 to 100 (0 no effect, 100 complete control)
Summary of the method: as §1

johnsongrass = experiment: Test E preemergence herbicide test; assay type: in vivo, Sorghum halepense; set-up: key: 0 = no effect, 100 = complete control
Summary of the method: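 Seeds were sown in silt loam soil and treated preemergence with test chemicals in a non-phytotoxic solvent mixture containing a surfactant. Plants were kept in a greenhouse for 21 days, then visually rated against untreated controls on a 0–100 scale (0 = no effect, 100 = complete control).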

O=C1NCC(c2ccc(C(F)(F)F)cc2)C1C(=O)Nc1cccc(F)c1F (racemic) [Compound 202]
75: Plant response rating (blackgrass; Preemergence, 250 g ai/ha) | Plant response rating (radish, wild; 125 g ai/ha)
25: Plant response rating, Wheat, Spring (wheat, spring; 125 g ai/ha) | Plant response rating, Wheat, Winter (wheat, winter; 125 g ai/ha) | Plant response rating, Wheat, Winter (wheat, winter; 250 g ai/ha) | Plant response rating, Johnsongrass (johnsongrass; 250 g ai/ha)
50: Plant response rating (radish, wild; 31 g ai/ha)
30: Plant response rating, Blackgrass (blackgrass; Preemergence, 31 g ai/ha) | Plant response rating (field violet; Postemergence, 62 g ai/ha) | Plant response rating (field violet; Postemergence, 125 g ai/ha) | Plant response rating (field violet; Postemergence, 250 g ai/ha)
20: Plant response rating (bromegrass, downy; Preemergence, 250 g ai/ha) | Plant response rating, Johnsongrass (johnsongrass; 125 g ai/ha)
35: Plant response rating, Blackgrass (blackgrass; Preemergence, 62 g ai/ha) | Plant response rating, Wheat, Spring (wheat, spring; 250 g ai/ha)
40: Plant response rating (blackgrass; Postemergence, 250 g ai/ha) | Plant response rating (field violet; Postemergence, 31 g ai/ha)
10: Plant response rating (blackgrass; Postemergence, 125 g ai/ha) | Plant response rating (field violet; Preemergence, 125 g ai/ha) | Plant response rating (ryegrass, Italian; 125 g ai/ha) | Plant response rating, Ryegrass, Italian (ryegrass, Italian; 250 g ai/ha) | Plant response rating, Wheat, Winter (wheat, winter; 62 g ai/ha)
15: Plant response rating (bromegrass, downy; Postemergence, 250 g ai/ha) | Plant response rating (field violet; Preemergence, 250 g ai/ha) | Plant response rating (ryegrass, Italian; 250 g ai/ha)
80: Plant response rating, Radish, Wild (radish, wild; 250 g ai/ha)
0: Plant response rating (blackgrass; Postemergence, 31 g ai/ha) | Plant response rating (bromegrass, downy; Postemergence, 31 g ai/ha) | Plant response rating (bromegrass, downy; Postemergence, 62 g ai/ha) | Plant response rating, Bromegrass, Downy (bromegrass, downy; Preemergence, 62 g ai/ha) | Plant response rating, Bromegrass, Downy (bromegrass, downy; Preemergence, 31 g ai/ha) | Plant response rating (bromegrass, downy; Preemergence, 125 g ai/ha) | Plant response rating, Field Violet (field violet; Preemergence, 62 g ai/ha) | Plant response rating, Field Violet (field violet; Preemergence, 31 g ai/ha) | Plant response rating (ryegrass, Italian; 31 g ai/ha) | Plant response rating (ryegrass, Italian; 62 g ai/ha) | Plant response rating, Ryegrass, Italian (ryegrass, Italian; 31 g ai/ha) | Plant response rating (wheat, spring; 31 g ai/ha) | Plant response rating (wheat, spring; 62 g ai/ha) | Plant response rating (wheat, spring; 125 g ai/ha) | Plant response rating, Wheat, Spring (wheat, spring; 31 g ai/ha) | Plant response rating (wheat, winter; 31 g ai/ha) | Plant response rating (wheat, winter; 62 g ai/ha) | Plant response rating (wheat, winter; 125 g ai/ha) | Plant response rating (wheat, winter; 250 g ai/ha) | Plant response rating, Radish, Wild (radish, wild; 62 g ai/ha) | Plant response rating, Radish, Wild (radish, wild; 125 g ai/ha) | Plant response rating, Radish, Wild (radish, wild; 31 g ai/ha) | Plant response rating, Johnsongrass (johnsongrass; 31 g ai/ha) | Plant response rating, Johnsongrass (johnsongrass; 62 g ai/ha)
70: Plant response rating (radish, wild; 62 g ai/ha) | Plant response rating (radish, wild; 250 g ai/ha)
65: Plant response rating (blackgrass; Preemergence, 125 g ai/ha)
5: Plant response rating (blackgrass; Postemergence, 62 g ai/ha) | Plant response rating (bromegrass, downy; Postemergence, 125 g ai/ha) | Plant response rating, Ryegrass, Italian (ryegrass, Italian; 62 g ai/ha) | Plant response rating, Ryegrass, Italian (ryegrass, Italian; 125 g ai/ha) | Plant response rating (wheat, spring; 250 g ai/ha) | Plant response rating, Wheat, Spring (wheat, spring; 62 g ai/ha) | Plant response rating, Wheat, Winter (wheat, winter; 31 g ai/ha)

O=C1NC[C@H](c2cccc(C(F)(F)F)c2)[C@H]1C(=O)Nc1cccc(F)c1F [Compound 206]
10: Plant response rating, Bromegrass, Downy (bromegrass, downy; Preemergence, 31 g ai/ha) | Plant response rating, Wheat, Spring (wheat, spring; 31 g ai/ha)
75: Plant response rating, Ryegrass, Italian (ryegrass, Italian; 250 g ai/ha) | Plant response rating, Johnsongrass (johnsongrass; 125 g ai/ha)
55: Plant response rating, Bromegrass, Downy (bromegrass, downy; Preemergence, 125 g ai/ha) | Plant response rating, Ryegrass, Italian (ryegrass, Italian; 125 g ai/ha)
90: Plant response rating (blackgrass; Preemergence, 250 g ai/ha) | Plant response rating, Johnsongrass (johnsongrass; 250 g ai/ha)
50: Plant response rating, Johnsongrass (johnsongrass; 62 g ai/ha)
25: Plant response rating, Bromegrass, Downy (bromegrass, downy; Preemergence, 62 g ai/ha) | Plant response rating (field violet; Preemergence, 250 g ai/ha) | Plant response rating, Wheat, Spring (wheat, spring; 62 g ai/ha) | Plant response rating, Wheat, Winter (wheat, winter; 125 g ai/ha) | Plant response rating, Radish, Wild (radish, wild; 62 g ai/ha) | Plant response rating, Radish, Wild (radish, wild; 31 g ai/ha)
15: Plant response rating, Field Violet (field violet; Preemergence, 31 g ai/ha)
65: Plant response rating, Wheat, Spring (wheat, spring; 250 g ai/ha)
30: Plant response rating, Blackgrass (blackgrass; Preemergence, 31 g ai/ha) | Plant response rating, Ryegrass, Italian (ryegrass, Italian; 62 g ai/ha) | Plant response rating, Wheat, Winter (wheat, winter; 250 g ai/ha) | Plant response rating, Radish, Wild (radish, wild; 125 g ai/ha) | Plant response rating, Radish, Wild (radish, wild; 250 g ai/ha) | Plant response rating, Johnsongrass (johnsongrass; 31 g ai/ha)
35: Plant response rating, Field Violet (field violet; Preemergence, 62 g ai/ha) | Plant response rating, Field Violet (field violet; Preemergence, 125 g ai/ha) | Plant response rating, Ryegrass, Italian (ryegrass, Italian; 31 g ai/ha)
45: Plant response rating, Wheat, Spring (wheat, spring; 125 g ai/ha)
70: Plant response rating, Blackgrass (blackgrass; Preemergence, 62 g ai/ha) | Plant response rating (bromegrass, downy; Preemergence, 250 g ai/ha)
0: Plant response rating, Wheat, Winter (wheat, winter; 62 g ai/ha) | Plant response rating, Wheat, Winter (wheat, winter; 31 g ai/ha)
85: Plant response rating, Blackgrass (blackgrass; Preemergence, 125 g ai/ha)
